Earlier results in patent US10842739B2, “Biodegradable alpha-2 agonist polymeric implants and therapeutic uses thereof” (Allergan, Inc., priority 2008, dated 2020).
Where two headings read alike, the source gives them in different places.

water solubility (in words): negligible
water solubility (in words) (listed as Brimonidine free base): poorly water soluble
water solubility (in words) (listed as brimonidine free base): not water soluble
Structure (SMILES): Brc1c(NC2=NCCN2)ccc2nccnc12 [brimonidine freebase, 5-bromo-6-(2-imidazolidinylideneamino)quinoxaline]
